Patent publication US20240158357A1, “NOVEL QUINAZOLINONES THAT INHIBIT THE FORMATION OF TAU OLIGOMERS AND THEIR METHOD OF USE” (OLIGOMERIX INC., priority 2019, published 2024)
“Also recorded” adds a separate entry of the source. Structures can show the parent of a compound that is named as a salt.

Tests used:
[1] = molecular target: T1, recombinant human tau 4R2N (Homo sapiens (Human), UniProt P10636); assay: Confirmatory Assay (CONFA), SDS-PAGE quantification of tau monomer and oligomers; format: biochemical; conditions: tau target 300 nM, 3 hours room temperature, compound 0.098 uM-50 uM
Description: (§1) Bacterial recombinant human tau 4R2N (the largest isoform of tau in the central nervous system, 441 amino acids in length, Seq. ID 1) constructs with either 6X-His or StrepII N-terminal epitope tags were purified from bacterial lysate using denaturing conditions to prepare tau in its monomeric form.
CONFA Assay: Confirmatory Assay (CONFA) used as a secondary screen for confirming the mechanism of action of compounds identified as hits using the ALA assay. The assay is performed using a similar procedure as ALA except that it utilizes SDS-PAGE for visualization and quantification of tau monomer and aggregated species (dimer, trimer, tetramer, pentamer, etc.). Only a single construct of tau without epitope tags is necessary, but the assay can use the same target prepared for the ALA assay also.
For the CONFA assay, Tau target (300 nM) was prepared in buffer (Tris-HCl pH 7.4) and was incubated at room temperature for 3 hours with vehicle control (DMSO) and a dose range of a compound of the disclosure (0.098 uM-50 uM). Samples were mixed with an equal volume of 2×SDS sample buffer (4% SDS, 20% glycerol, 0.004% bromphenol blue, 125 mM Tris HCl, pH 7.0) to resolve tau monomer and disulfide-linked oligomers on 4-20% gradient polyacrylamide gels (Biorad) along with positive control (non-oligomerized tau target). The gels were stained with Oriole Fluorescent Gel Stain (BioRad) and imaged using the FluorChem R system (Protein Simple). AlphaView software (Protein Simple) was used for quantification of tau monomer and oligomers.

[2] = molecular target: T1, recombinant human tau 4R2N; assay: AlphaLisa Assay (ALA), primary screen for inhibition of tau oligomer formation; format: biochemical; conditions: tau target 300 nM, 4 hours room temperature, compound 0.098 uM-50 uM
Description: as §1
ALA Assay: AlphaLisa Assay (ALA) was used as a primary screen for identifying compounds that inhibit tau oligomer formation. It is a bead based assay that only gives signal when the beads are in close proximity to each other. When the tau monomer (target) is incubated it forms higher order aggregates (dimer, trimer, tetramer, etc) so that when the donor and acceptor beads bind to the epitope tags of tau they are in close proximity and generate signal.
Tau target (equal mixture of each construct at 300 nM) was prepared in buffer (Tris-HCl pH 7.4) and was incubated in 96-well plates at room temperature for 4 hours with vehicle control (DMSO) and a dose range of a compound of the disclosure (0.098 uM-50 uM). AlphaLisa acceptor heads & donor beads with ligands to the epitope tags (Perkin Elmer) were diluted (final 20 ug/mL per bead) in bead buffer (25 mM HEPES pH 7.4, 100 mM NaCl, 0.1% Tween-20), added to the wells and incubated 1 hour at room temperature. The positive control (non-incubated target) & blank (no tau) were prepared and mixed with beads in bead buffer and the plate was read immediately using the EnVision plate reader (Perkin Elmer).

[3] = system: insoluble tau aggregates in the brains of htau mice; assay: htau mouse study, insoluble tau in cortex (mAb DA31); format: in vivo
Description: (§2) Four groups of htau mice (n=25 per group) were treated from 2.5 to 6.5 months of age with 0, 10, 40 and 100 mg/kg of compound TO-0582 milled into feed. The study was performed independently and blinded. The primary endpoint of the study was reduction of insoluble tau aggregates in the brains of the mice with statistical significance. […] Methods for biochemical analyses of tau used in this study have been previously described (Acker C M et al. Sensitive quantitative assays for tau and phospho-tau in transgenic mouse models. Neurobiol Aging. 2013. 34:338). The results in FIG. 1 show in vivo efficacy of the compound in reducing tau pathology. Levels of insoluble tau in the cortices of htau mice treated with compound TO-0582 (example 21) were determined using the pan-tau monoclonal antibody (mAb) DA31. These values were normalized to total tau in the lysates of the cortex of each mouse. Error bars indicate standard error of the mean. The P values of comparisons of the groups treated with 10, 40 or 100 mg/kg TO-0582 to the control group (white bar, 0 mg/kg) are 0.0503 (horizontal hatch bar, 10 mg/kg), 0.0154 (diagonal hatch bar, 40 mg/kg) and 0.0488 (vertical hatch bar, 100 mg/kg). * indicates P value <0.05.

htau mice = assay: htau mouse study, tolerability; format: in vivo; conditions: all doses (10, 40, 100 mg/kg in feed)
Description: as §2

T1 sequence (P10636 other isoform, or with tags, fused parts or gaps): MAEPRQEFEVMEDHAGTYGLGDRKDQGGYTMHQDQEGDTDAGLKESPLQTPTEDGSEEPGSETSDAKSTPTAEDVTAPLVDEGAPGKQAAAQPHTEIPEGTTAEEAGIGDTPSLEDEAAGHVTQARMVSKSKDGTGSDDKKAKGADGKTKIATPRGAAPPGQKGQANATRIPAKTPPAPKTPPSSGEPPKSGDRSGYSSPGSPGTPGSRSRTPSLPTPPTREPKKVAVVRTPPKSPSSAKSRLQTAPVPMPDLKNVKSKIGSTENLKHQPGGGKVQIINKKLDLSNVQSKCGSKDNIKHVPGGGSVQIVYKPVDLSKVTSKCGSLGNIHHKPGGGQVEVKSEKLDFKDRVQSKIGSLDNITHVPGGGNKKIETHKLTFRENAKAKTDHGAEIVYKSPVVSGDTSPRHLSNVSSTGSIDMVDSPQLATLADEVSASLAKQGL

| SMILES | IC50 [1] | IC50 [2] | further results |
| --- | --- | --- | --- |
| O=c1c2ccccc2nc(-c2cccnc2)n1-c1ccc(Cl)c(O)c1 [Ex. 2, 3-(4-Chloro-3-hydroxyphenyl)-2-(pyridin-3-yl)quinazolin-4(3H)-one hydrochloride] | 31.9 µM | 5.78 µM | – |
| O=c1c2ccccc2nc(-c2cccnc2)n1CCCCO [Ex. 3, 3-(4-Hydroxybutyl)-2-(pyridin-3-yl)quinazolin-4(3H)-one hydrochloride] | 8.94 µM | 9.93 µM | – |
| O=c1c2ccccc2nc(-c2cccnc2)n1-c1cccc(OCc2ccccc2)c1 [Ex. 4, 3-(3-(Benzyloxy)phenyl)-2-(pyridin-3-yl)quinazolin-4(3H)-one hydrochloride] | 3.19 µM | 7.8 µM | – |
| O=c1[nH]c(-c2cccnc2)nc2cnccc12 [Ex. 6, 2-(Pyridin-3-yl)pyrido[3,4-d]pyrimidin-4(3H)-one dihydrochloride] | 59.2 µM | – | – |
| CN1CC(C(=O)Nc2ccc(-c3nc4ccccc4c(=O)n3-c3cccnc3)cc2)C1 [Ex. 7, N-(4-(3,4-Dihydro-4-oxo-3-(pyridin-3-yl)quinazolin-2-yl)phenyl)-1-methylazetidine-3-carboxamide dihydrochloride] | 12.1 µM | 9.6 µM | – |
| CN1CC(C(=O)Nc2ccc(-c3nc4ccsc4c(=O)[nH]3)cc2)C1 [Ex. 9, N-(4-(3,4-Dihydro-4-oxothieno[3,2-d]pyrimidin-2-yl)phenyl)-1-methyl azetidine-3-carboxamide hydrochloride] | 62.4 µM | 6.89 µM | – |
| O=c1c2sccc2nc(-c2cccnc2)n1-c1cccnc1 [Ex. 10, 2,3-Di(pyridin-3-yl)thieno[3,2-d]pyrimidin-4(3H)-one] | – | 26.3 µM | – |
| Cc1ccc(-n2c(-c3cccnc3)nc3ccsc3c2=O)cc1O [Ex. 11, 3-(3-Hydroxy-4-methylphenyl)-2-(pyridin-3-yl)thieno[3,2-d]pyrimidin-4(3H)-one] | 57 µM | 17.1 µM | – |
| COc1ccc(-n2c(-c3ccc(NC(C)=O)cc3)nc3ccsc3c2=O)cn1 [Ex. 13, N-(4-(3,4-Dihydro-3-(6-methoxypyridin-3-yl)-4-oxothieno[3,2-d]pyrimidin-2-yl)phenyl)acetamide] | – | 13.6 µM | – |
| COc1ccc(-n2c(-c3cccnc3)nc3ccsc3c2=O)cn1 [Ex. 14, 3-(6-Methoxypyridin-3-yl)-2-(pyridin-3-yl)thieno[3,2-d]pyrimidin-4(3H)-one dihydrochloride] | 22.3 µM | 6.25 µM | – |
| O=c1[nH]c(-c2cccnc2)nc2ccsc12 [Ex. 15, 2-(pyridin-3-yl)thieno[3,2-d]pyrimidin-4(3H)-one] | 7.6 µM | 3.72 µM | – |
| CCc1ccc(-n2c(-c3ccc(NC(C)=O)cc3)nc3ccsc3c2=O)cc1O [Ex. 16, N-(4-(3-(4-ethyl-3-hydroxyphenyl)-4-oxo-3,4-dihydrothieno[3,2-d]pyrimidin-2-yl)phenyl)acetamide] | 1.7 µM | 4.53 µM | – |
| CCc1ccc(-n2c(-c3cccnc3)nc3ccccc3c2=O)cc1F [Ex. 17, 3-(3-Fluoro-4-ethylphenyl)-2-(pyridine-3-yl)quinazolin-4(3H)-one] | – | 24.1 µM | – |
| CCc1ccc(-n2c(-c3cccnc3)nc3ccccc3c2=O)cc1Br [Ex. 18, 3-(3-Bromo-4-ethylphenyl)-2-(pyridine-3-yl)quinazolin-4(3H)-one] | – | 4.5 µM | – |
| CCc1ccc2cc(-n3c(-c4cccnc4)nc4ccccc4c3=O)ccc2c1 [Ex. 19, 3-(2-Ethylnaphthalen-6-yl)-2-(pyridine-3-yl)quinazolin-4(3H)-one] | – | 8.05 µM | – |
| Cc1ccc(-n2c(-c3cccnc3)nc3ccccc3c2=O)cc1O [Ex. 20, 3-(4-Methyl-3-hydroxyphenyl)-2-(pyridin-3-yl)quinazolin-4(3H)-one hydrochloride] | 4.18 µM | 1.9 µM | – |
| O=c1c2ccccc2nc(-c2cccnc2)n1-c1cccc(O)c1 [Ex. 21, 3-(3-Hydroxyphenyl)-2-(pyridin-3-yl)quinazolin-4(3H)-one hydrochloride] | 5.67 µM | 5.14 µM | reduction of insoluble tau, statistical significance ([3]; 40 mg/kg and 100 mg/kg doses, male htau mice): achieved with statistical significance; reduction of insoluble tau aggregates in the brains ([3]; htau mice, 10, 40 and 100 mg/kg milled into feed, 2.5 to 6.5 months of age, listed as TO-0582, hydrochloride): reduced insoluble tau at all doses; also recorded: achieved with statistical significance; tolerability over the course of the study (htau mice): well tolerated; toxic effects on weight, behavior or morbidity (htau mice): did not cause toxic effects |
